Experimental findings from paper PMC4149780, “Structural basis for polyspecificity in the POT family of proton-coupled oligopeptide transporters” (EMBO Reports, 2014) are described below.

Holding throughout (assay type): biochemical, Streptococcus thermophilus
One assay has as its system PepTSt (WT). The experiment in a line: proton-driven [3H]-di-Ala uptake competition in reconstituted liposomes, WT transporter. As to the method: (§1) PepTSt was reconstituted into Escherichia coli total lipids with egg PC liposomes and assayed using a proton-driven system as previously described.
Figure S2. Substrate specificity profile for PepTSt.
‘% residual transport ’ refers to competition for 3H-Ala-Ala uptake in the presence of 10 mM of the cold peptides indicated on the X-axis as a percentage of ‘no competitor’ peptide in a reconstituted proton driven uptake assay.Error bars indicate the standard deviation from three independent

The test system of a further assay is PepTSt Tyr29Phe (Y29F). Description: proton-driven [3H]-di-Ala uptake competition in reconstituted liposomes, Y29F variant.
Description: as §1

For another assay, the system named is PepTSt Asn156Ala (N156A). The experiment in a line: proton-driven [3H]-di-Ala uptake competition in reconstituted liposomes, N156A variant.
Description: as §1

Another assay has as its system PepTSt Trp427Phe (W427F). The experiment in a line: proton-driven [3H]-di-Ala uptake competition in reconstituted liposomes, W427F variant.
Description: as §1

In general, IC50 refers to the point on the concentration scale where inhibition reaches its midpoint.

Regarding L-Ala-L-Ala [Ala-Ala], the IC50 with PepTSt (WT) (WT PepTSt in liposomes, proton-driven uptake) was 37 µM; in the assay on PepTSt Tyr29Phe (Y29F) it was 40 µM; with PepTSt Asn156Ala (N156A), 86 µM; with PepTSt Trp427Phe (W427F), 35 µM.
Turning to tri-glycine, the “% residual transport (competition for 3H-Ala-Ala uptake), result in words” value with PepTSt (WT) (10 mM cold peptide, reconstituted proton driven uptake assay, WT PepTSt) was “not able to compete effectively”.
